Measured values published in patent US10532977B2, “Small molecule inhibitors of protein tyrosine phosphatases and uses thereof” (Indiana University Research and Technology Corporation, priority 2015, dated 2020).
Entries after “also recorded” stand apart in the source; their conditions may differ.

Key:
[1] = Stability in buffer solutions by LC-MS; type: physicochemical
Experimental: (§1) Agilent Technologies 6130 quadrupole LC-MS instrument was used for the LC-MS studies. A C18 reserved phase column (phenomenex, 50×4.6 mm) was used as stationary phase, water and methanol (both containing 0.1% formic acid) were used as mobile phase (gradient: 0-100% methanol, flow 0 8 ml/min, run time 15 minutes), and UV absorbance at the fixed wavelength of 254 nm and positive and negative ESI-MS data were recorded. The sample was adjusted to have a concentration at 0.1 mg/mL, and the injection volume of each sample was 0.2 μL. The retention time and corresponding ESI-MS data were used as identity of molecules.

SHP2 [2] = biological target: SHP2 (Homo sapiens, UniProt Q06124); test: Covalent adduct formation with SHP2, QTOF ESI-MS / LC-MS; conditions: pH 7, cefsulodin 3 hours, PVS 10 minutes
Experimental: Characterization of cefsulodin-mediated SHP2 inhibition by Q-TOF ESI-MS, LC-MS, and HPLC. Agilent 6520 Accurate-Mass was used for the Q-TOF ESI-MS studies. Water and acetonitrile (both containing 0.1% formic acid) were used as eluent (80% water, flow 50 μL/min, run time 5 minutes). ESI positive mode was used with mass range from 300 to 1700, the gas temperature was 325° C., and vaporizer temperature was: […] The sample was adjusted to have a concentration at 0.1 mg/mL, the injection volume of each sample was 1 μL. Mass hunter software was used for protein deconvolution data analysis to calculate the molecular weight of the protein.
as §1

SHP2 [3] = biological target: T1, SHP2 (Homo sapiens, UniProt Q06124); test: SHP2 inhibition, pNPP substrate; type: biochemical; conditions: for mode of SHP2 inhibition: pNPP as substrate
T1 sequence (Q06124 224-528): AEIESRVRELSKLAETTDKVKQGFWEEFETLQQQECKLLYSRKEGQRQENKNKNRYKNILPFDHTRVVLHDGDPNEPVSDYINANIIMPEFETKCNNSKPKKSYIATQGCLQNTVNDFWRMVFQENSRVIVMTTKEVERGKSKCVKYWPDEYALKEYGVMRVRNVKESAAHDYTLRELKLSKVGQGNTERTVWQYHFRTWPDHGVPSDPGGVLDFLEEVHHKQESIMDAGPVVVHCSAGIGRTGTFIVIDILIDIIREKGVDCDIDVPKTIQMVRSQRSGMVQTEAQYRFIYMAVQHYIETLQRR

SHP2/R362A = SHP2/R362A (Homo sapiens, UniProt Q06124, R362A); test: SHP2/R362A mutant inhibition, pNPP substrate; type: biochemical; conditions: vs wild-type SHP2
Experimental: Protein expression and purification. […] These proteins were expressed in E. coli BL21(DE3) and purified with Ni-NTA resin (Qiagen). The SHP2 catalytic domain (residues 262-528) used for crystallization was expressed in E. coli BL21(DE3) and purified by Ni-NTA agarose (Qiagen) followed by sequential chromatography of HiPrep 26 desalting column (GE Healthcare), and cation exchange column packed with SP sepharose (GE Healthcare). Protein purity was determined to be greater than 95% by SDS-PAGE and Coomassie blue staining.
Enzyme kinetics and inhibition studies. The SHP2 phosphatase activity was assayed in 96-well plates using pNPP as a substrate at 25° C. in 50 mM 3,3-dimethylglutarate (DMG) buffer (pH=7.0), containing 1 mM EDTA with an ionic strength of 0.15 M adjusted by NaCl. The FDA-approved drug collection or the SPAA based libraries were screened in a 96-well format at two different compound concentrations (10 and 20 μM for FDA drugs and 10 and 1 μM for the SPAA libraries). […] The amount of product, p-nitrophenol, was determined from the absorbance at 405 nm detected by a Spectra MAX340 microplate spectrophotometer (Molecular Devices) using a molar extinction coefficient of 18,000 M^−1 cm^−1. […] The Michaelis-Menten kinetic parameters kcat and Km were determined from a direct fit of the velocity versus substrate concentration data to Michaelis-Menten equation using SigmaPlot program.

SKBR3 cells = test: SKBR3 cell growth and ERK1/2 in Matrigel; type: cell-based, human; conditions: 5 days
Experimental: SHP2 inhibitor 2 effects on cell growth in Matrigel. Approximately 300,000 SKBR3 cells were seeded into 150 µL of growth factor reduced Matrigel (BD) that was then covered with 2 mLs of media containing either 20 µL vehicle (DMSO) or the indicated concentrations of compound 2. Cells were then imaged at 24-hour intervals using a NIKON SMZ1500 stereomicroscope. After 5 days the cells were recovered from the Matrigel by the following method. Media was aspirated and cells were washed with 500 µL of cold PBS. 150 µL of RIPA lysis buffer supplemented with ProteCEASE-50. EDTA Free protease inhibitors (GBiosciences) was added to the Matrigel. Cells were scraped into a slurry and instantly frozen using dry ice for 5 minutes. After thawing tubes were spun down at 4° C. for 10 minutes at 14K rpm. Proteins were then resolved by SDS-PAGE and the relative levels of total and phospho-ERK1/2 were detected by immunoblot analysis.

[4] = system: PMA-induced ERK1/2 phosphorylation; test: PMA-induced ERK1/2 phosphorylation, immunoblot; type: cell-based, human
Experimental: (§2) Cell proliferation and immunoblot analysis. Human non-small cell lung carcinoma cell line H1975 was cultured at 37° C. and 5% CO2 in RPMI-1640 (Corning) supplemented with 10% fetal bovine serum (HyClone). Human breast cancer cell line MDA-MB-231 was cultured in DMEM supplemented with 10% fetal bovine serum. For cell proliferation assay, 2˜3×10^3 cells were seeded in each well of 96-well plates. After treating cells with compounds for 2 days, cells were incubated with 50 µg/ml MTT (3-(4,5-Dimethylthiazol-2-yl)-2,5-diphenyltetrazolium bromide) for ˜3-4 hours. Then, the culture medium was removed, DMSO was added to dissolve the formazan crystals. Wells containing only media were used for background correction. The optical density was measured spectrophotometrically at 540 nm. For signaling analysis, cells were serum-starved overnight followed by treatment with vehicle or compounds for 3 hours, and then either left un-stimulated or stimulated with 5 μg/ml EGF or 10 nM PMA (Sigma) for indicated time. Cells were lysed and the lysates were electrophoresed on a 10% polyacrylamide gel, and then transferred to a nitrocellulose membrane, and probed with anti-phospho-ERK1/2 and anti-ERK1/2 (Cell Signaling) antibodies followed by incubation with horseradish peroxidase-conjugated secondary antibodies. […]

[5] = system: EGF-mediated ERK1/2 phosphorylation; test: EGF-mediated ERK1/2 phosphorylation, immunoblot, H1975 cells; type: cell-based, human; conditions: compound 7 at 40 μM
Experimental: as §2

PTPβ = PTPβ (Homo sapiens, UniProt P23467); test: PTPβ inhibition, pNPP substrate; type: biochemical, mammalian; conditions: pNPP at Km, pH 7.0, 25° C.
PTPβ, sequence (P23467 23-1997): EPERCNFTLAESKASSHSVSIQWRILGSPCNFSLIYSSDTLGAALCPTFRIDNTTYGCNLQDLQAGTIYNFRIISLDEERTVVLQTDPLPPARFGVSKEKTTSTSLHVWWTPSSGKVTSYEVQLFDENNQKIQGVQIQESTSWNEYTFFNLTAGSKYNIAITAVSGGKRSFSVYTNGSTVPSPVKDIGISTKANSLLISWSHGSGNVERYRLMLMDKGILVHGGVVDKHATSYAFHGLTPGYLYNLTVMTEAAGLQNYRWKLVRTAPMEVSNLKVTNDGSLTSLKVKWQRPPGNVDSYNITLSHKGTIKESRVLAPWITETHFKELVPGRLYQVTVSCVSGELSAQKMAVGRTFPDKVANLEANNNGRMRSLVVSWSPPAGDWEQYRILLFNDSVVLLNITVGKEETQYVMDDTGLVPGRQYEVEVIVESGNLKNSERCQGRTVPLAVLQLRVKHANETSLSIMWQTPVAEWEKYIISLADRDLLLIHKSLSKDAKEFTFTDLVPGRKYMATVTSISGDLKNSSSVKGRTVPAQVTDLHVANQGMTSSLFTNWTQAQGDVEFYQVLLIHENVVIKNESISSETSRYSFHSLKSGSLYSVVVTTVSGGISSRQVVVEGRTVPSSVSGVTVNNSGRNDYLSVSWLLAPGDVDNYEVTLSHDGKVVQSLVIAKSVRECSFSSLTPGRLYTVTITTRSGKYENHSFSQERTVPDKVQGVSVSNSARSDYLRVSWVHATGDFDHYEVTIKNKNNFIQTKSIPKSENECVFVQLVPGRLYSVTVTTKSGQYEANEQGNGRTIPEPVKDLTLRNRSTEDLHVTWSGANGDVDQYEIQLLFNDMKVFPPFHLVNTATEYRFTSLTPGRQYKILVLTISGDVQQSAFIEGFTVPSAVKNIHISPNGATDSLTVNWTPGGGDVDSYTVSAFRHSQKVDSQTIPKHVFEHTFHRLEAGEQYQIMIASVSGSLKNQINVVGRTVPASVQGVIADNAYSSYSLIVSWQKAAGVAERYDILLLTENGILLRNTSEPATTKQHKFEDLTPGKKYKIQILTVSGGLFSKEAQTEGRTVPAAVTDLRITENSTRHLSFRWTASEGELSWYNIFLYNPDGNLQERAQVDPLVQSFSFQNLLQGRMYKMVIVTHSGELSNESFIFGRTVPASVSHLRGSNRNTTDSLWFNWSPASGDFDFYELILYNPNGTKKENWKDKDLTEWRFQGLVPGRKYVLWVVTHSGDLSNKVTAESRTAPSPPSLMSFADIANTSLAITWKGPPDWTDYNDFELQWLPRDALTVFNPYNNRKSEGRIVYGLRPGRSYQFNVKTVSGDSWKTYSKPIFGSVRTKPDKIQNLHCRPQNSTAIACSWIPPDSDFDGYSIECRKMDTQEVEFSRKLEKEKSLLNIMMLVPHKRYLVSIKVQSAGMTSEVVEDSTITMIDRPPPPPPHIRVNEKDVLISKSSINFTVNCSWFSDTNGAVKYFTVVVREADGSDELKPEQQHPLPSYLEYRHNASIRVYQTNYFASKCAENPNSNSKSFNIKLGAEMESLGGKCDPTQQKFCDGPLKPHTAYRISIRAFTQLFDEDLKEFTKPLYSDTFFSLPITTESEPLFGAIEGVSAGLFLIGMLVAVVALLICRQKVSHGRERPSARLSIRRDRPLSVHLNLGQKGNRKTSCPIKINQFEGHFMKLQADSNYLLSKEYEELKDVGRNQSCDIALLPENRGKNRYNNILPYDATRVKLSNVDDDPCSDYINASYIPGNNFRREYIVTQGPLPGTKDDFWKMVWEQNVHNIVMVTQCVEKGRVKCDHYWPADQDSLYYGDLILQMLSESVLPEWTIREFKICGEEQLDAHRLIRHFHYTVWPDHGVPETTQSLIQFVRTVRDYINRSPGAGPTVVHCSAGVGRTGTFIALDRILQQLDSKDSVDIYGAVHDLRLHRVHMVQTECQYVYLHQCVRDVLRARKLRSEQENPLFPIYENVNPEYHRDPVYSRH

Ssu72 = biological target: T2, Ssu72 (Homo sapiens, UniProt Q9NP77); test: Ssu72 inhibition, pNPP substrate; type: biochemical; conditions: pH 7
T2 construct: made in house

PTP1B = PTP1B (Homo sapiens, UniProt P18031); test: PTP1B inhibition, pNPP substrate; type: biochemical; conditions: pNPP at Km, pH 7.0, 25° C.
TcPTP = TcPTP (Homo sapiens, UniProt P17706); test: TcPTP inhibition, pNPP substrate; type: biochemical; conditions: pH 7
VHZ = biological target: T3, VHZ (Homo sapiens, UniProt Q9BVJ7); test: VHZ inhibition, pNPP substrate; type: biochemical; conditions: pNPP at Km, pH 7.0, 25° C.
T3 construct: made in house

CD45 = CD45 (Homo sapiens, UniProt P08575); test: CD45 inhibition, pNPP substrate; type: biochemical; conditions: pNPP at Km, pH 7.0, 25° C.
LYP = LYP (Homo sapiens, UniProt Q9Y2R2); test: LYP inhibition, pNPP substrate; type: biochemical; conditions: pNPP at Km, pH 7.0, 25° C.
PTPσ = PTPσ (Homo sapiens, UniProt Q13332); test: PTPσ inhibition, pNPP substrate; type: biochemical; conditions: pH 7
CDC14A = CDC14A (Homo sapiens, UniProt Q9UNH5); test: CDC14A inhibition, pNPP substrate; type: biochemical; conditions: pNPP at Km, pH 7.0, 25° C.
FAP1 = FAP1 (Homo sapiens, UniProt Q12923); test: FAP1 inhibition, pNPP substrate; type: biochemical; conditions: pH 7
FAP1, sequence (Q12923 whole entry): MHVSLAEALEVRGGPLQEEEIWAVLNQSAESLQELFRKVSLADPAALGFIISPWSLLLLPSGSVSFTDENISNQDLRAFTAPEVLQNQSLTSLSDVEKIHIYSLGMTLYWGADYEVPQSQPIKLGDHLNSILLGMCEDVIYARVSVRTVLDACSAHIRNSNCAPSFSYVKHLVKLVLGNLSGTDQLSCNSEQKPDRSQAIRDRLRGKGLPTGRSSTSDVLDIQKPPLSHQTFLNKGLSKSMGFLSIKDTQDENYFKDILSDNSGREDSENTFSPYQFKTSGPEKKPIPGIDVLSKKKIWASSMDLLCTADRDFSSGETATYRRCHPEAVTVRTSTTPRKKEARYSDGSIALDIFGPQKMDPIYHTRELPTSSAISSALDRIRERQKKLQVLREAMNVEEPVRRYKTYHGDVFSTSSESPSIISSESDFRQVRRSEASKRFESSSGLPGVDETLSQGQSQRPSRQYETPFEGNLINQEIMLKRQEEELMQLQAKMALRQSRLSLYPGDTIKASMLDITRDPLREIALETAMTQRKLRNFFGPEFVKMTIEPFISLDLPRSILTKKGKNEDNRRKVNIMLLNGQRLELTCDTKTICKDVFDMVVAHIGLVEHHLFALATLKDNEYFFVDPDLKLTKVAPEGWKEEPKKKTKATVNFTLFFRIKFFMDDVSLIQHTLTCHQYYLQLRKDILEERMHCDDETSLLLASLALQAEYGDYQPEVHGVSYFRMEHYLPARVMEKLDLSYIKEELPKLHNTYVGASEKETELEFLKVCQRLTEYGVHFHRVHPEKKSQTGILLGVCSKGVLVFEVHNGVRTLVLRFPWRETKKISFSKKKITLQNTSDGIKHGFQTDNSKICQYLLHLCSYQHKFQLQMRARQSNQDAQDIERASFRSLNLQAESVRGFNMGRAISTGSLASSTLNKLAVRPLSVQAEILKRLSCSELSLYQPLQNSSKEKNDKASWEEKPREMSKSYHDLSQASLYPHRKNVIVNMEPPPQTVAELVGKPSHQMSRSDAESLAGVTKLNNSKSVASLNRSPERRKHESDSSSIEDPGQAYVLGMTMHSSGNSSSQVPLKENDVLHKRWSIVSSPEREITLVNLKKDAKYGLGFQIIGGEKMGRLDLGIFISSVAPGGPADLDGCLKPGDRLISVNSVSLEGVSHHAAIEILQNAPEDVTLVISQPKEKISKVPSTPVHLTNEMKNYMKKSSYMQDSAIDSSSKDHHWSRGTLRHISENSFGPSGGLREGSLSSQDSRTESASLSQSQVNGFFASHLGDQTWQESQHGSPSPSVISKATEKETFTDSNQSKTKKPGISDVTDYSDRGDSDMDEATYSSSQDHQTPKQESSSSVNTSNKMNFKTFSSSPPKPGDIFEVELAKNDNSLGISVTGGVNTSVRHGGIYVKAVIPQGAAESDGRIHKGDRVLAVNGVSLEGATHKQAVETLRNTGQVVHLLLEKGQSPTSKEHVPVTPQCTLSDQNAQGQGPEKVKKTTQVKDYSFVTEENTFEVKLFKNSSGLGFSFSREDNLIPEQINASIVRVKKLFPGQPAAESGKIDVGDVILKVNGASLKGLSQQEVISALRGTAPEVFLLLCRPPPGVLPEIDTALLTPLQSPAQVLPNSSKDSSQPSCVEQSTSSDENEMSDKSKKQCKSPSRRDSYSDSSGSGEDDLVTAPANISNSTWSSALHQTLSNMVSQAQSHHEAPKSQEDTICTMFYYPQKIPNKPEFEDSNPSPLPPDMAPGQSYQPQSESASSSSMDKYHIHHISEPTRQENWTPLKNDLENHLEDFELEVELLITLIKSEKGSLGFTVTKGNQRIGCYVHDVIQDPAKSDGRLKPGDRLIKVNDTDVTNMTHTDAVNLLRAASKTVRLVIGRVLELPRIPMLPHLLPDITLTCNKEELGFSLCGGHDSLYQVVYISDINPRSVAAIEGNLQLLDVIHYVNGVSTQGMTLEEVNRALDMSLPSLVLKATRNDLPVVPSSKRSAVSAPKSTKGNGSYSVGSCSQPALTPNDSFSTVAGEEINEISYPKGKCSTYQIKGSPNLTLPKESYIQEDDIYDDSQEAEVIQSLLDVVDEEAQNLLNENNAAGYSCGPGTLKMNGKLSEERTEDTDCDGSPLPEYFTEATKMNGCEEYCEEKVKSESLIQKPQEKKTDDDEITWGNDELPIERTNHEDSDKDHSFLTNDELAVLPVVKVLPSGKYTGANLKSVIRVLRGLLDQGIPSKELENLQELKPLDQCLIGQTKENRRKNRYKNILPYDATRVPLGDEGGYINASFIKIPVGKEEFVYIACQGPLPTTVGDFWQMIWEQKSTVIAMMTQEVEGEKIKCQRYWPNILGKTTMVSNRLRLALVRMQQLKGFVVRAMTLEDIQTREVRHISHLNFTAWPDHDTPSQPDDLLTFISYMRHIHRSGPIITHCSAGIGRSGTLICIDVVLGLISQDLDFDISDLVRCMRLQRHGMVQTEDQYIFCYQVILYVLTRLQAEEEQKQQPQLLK

PP5 = PP5 (Homo sapiens, UniProt P53041); test: PP5 inhibition, pNPP substrate; type: biochemical, mammalian; conditions: pNPP at Km, pH 7.0, 25° C.
Meg2 = Meg2 (Homo sapiens, UniProt P43378); test: Meg2 inhibition, pNPP substrate; type: biochemical; conditions: pNPP at Km, pH 7.0, 25° C.
HePTP = HePTP (Homo sapiens, UniProt P35236); test: HePTP inhibition, pNPP substrate; type: biochemical; conditions: pNPP at Km, pH 7.0, 25° C.
PTPμ = PTPμ (Homo sapiens, UniProt P28827); test: PTPμ inhibition, pNPP substrate; type: biochemical, mammalian; conditions: pNPP at Km, pH 7.0, 25° C.
PTPγ = PTPγ (Homo sapiens, UniProt P23470); test: PTPγ inhibition, pNPP substrate; type: biochemical; conditions: pNPP at Km, pH 7.0, 25° C.
PTPα = PTPα (Homo sapiens, UniProt P18433); test: PTPα inhibition, pNPP substrate; type: biochemical; conditions: pNPP at Km, pH 7.0, 25° C.
VHR = VHR (Homo sapiens, UniProt P51452); test: VHR inhibition, pNPP substrate; type: biochemical; conditions: pNPP at Km, pH 7.0, 25° C.
SHP1 = SHP1 (Homo sapiens, UniProt P29350); test: SHP1 inhibition, pNPP substrate; type: biochemical; conditions: pNPP at Km, pH 7.0, 25° C.
MKP3 = MKP3 (Homo sapiens, UniProt Q16828); test: MKP3 inhibition, pNPP substrate; type: biochemical; conditions: pH 7
LAR = LAR (Homo sapiens, UniProt P10586); test: LAR inhibition, pNPP substrate; type: biochemical; conditions: pNPP at Km, pH 7.0, 25° C.
PTPε = PTPε (Homo sapiens, UniProt P23469); test: PTPε inhibition, pNPP substrate; type: biochemical, mammalian; conditions: pNPP at Km, pH 7.0, 25° C.
PTPε, sequence (P23469 20-700): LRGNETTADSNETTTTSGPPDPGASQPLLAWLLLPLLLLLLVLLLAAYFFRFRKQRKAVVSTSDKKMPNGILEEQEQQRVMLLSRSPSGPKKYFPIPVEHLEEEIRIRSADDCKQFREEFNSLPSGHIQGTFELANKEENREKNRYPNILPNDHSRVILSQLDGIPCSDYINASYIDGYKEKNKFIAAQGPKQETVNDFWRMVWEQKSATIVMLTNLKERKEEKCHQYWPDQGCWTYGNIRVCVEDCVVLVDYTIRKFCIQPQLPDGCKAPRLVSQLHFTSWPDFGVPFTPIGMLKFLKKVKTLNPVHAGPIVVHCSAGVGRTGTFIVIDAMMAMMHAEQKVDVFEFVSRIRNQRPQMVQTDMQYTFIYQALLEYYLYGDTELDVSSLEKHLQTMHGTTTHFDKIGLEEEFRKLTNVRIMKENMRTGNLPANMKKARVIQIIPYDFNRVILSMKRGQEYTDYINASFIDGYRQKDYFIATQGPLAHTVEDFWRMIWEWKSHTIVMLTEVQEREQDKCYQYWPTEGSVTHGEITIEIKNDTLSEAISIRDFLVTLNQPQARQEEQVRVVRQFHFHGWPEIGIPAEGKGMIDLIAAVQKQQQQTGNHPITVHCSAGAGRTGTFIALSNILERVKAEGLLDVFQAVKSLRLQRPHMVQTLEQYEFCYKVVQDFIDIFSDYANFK

LMWPTP = LMWPTP (Homo sapiens, UniProt P24666); test: biochemical
Laforin = biological target: T4, Laforin (Homo sapiens, UniProt O95278); test: Laforin inhibition, pNPP substrate; type: biochemical
T4 sequence (O95278 1-331): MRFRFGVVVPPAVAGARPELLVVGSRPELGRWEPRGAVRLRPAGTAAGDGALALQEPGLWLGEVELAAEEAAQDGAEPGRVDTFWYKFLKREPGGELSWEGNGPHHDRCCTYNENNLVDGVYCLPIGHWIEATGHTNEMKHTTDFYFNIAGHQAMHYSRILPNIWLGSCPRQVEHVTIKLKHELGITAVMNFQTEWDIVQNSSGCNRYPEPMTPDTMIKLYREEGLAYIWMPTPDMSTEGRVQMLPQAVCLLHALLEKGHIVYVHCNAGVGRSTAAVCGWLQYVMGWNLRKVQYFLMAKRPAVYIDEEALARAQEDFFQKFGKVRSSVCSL

PEST = PEST (Homo sapiens, UniProt Q05209); test: PEST inhibition, pNPP substrate; type: biochemical

NC(=O)c1cc[n+](CC2=C(C(=O)O)N3C(=O)[C@@H](NC(=O)[C@@H](c4ccccc4)S(=O)(=O)[O-])[C@H]3SC2)cc1 [Cefsulodin]
stability in crystallization solution (final pH=7.1) ([1]; 20° C., with SHP2 and DTT): completely degraded within 2 days; also recorded: the majority of cefsulodin was gone after 2 d | stability in CBTP buffer at pH 9.1 ([1]; 3 h, 6 h, 12 h): degradation was further accelerated; also recorded: cefsulodin was gone after 12 h | stability in pH 5.8 MES buffer ([1]; 12 h, 1 d, 2 d): degradation of cefsulodin was negligible; also recorded: stable for at least 2 days | stability in pH 7.4 CBTP buffer ([1]; 12 h, 1 d, 2 d): degradation was obvious; also recorded: cefsulodin concentrations decreased progressively | stability under inhibition assay conditions ([1]; pH 7 and 25° C., 0 h, 3 h, 24 h and 48 h): no change in cefsulodin | covalent adduct formation with SHP2 (SHP2 [2]): no covalent adduct formation; also recorded: not inhibiting SHP2 by covalent modification | mode of SHP2 inhibition (SHP2 [3]): competitive inhibitor | mode of SHP2 inhibition (SHP2 [3]; listed as cefsulodin): competitive and reversible | increase of IC50 by replacement of R362 with alanine (SHP2/R362A): 3 fold

O=C(Nc1ccc(I)cc1)C(=O)Nc1ccc(NC(=O)C(c2ccccc2)S(=O)(=O)O)cc1 (stereo not shown) [Compound 2, 2-((4-(2-((4-iodophenyl)amino)-2-oxoacetamido)phenyl)amino)-2-oxo-1-phenylethanesulfonic acid]
ERK1/2 activity in SKBR3 cells in Matrigel at 20 μM (SKBR3 cells; 20 μM): partial inhibition | SKBR3 cell growth in Matrigel at 20 μM (SKBR3 cells; 20 μM): partial inhibition | ERK1/2 activity in SKBR3 cells in Matrigel at 40 μM (SKBR3 cells; 40 μM): barely detectable | SKBR3 cell growth in Matrigel at 40 μM (SKBR3 cells; 40 μM): almost completely absent | PMA-induced ERK1/2 phosphorylation [4]: no effect | EGF-mediated ERK1/2 phosphorylation in H1975 cells [5]: reduced EGF-mediated ERK1/2 phosphorylation in a dose-dependent manner; also recorded: decrease the EGF-mediated ERK1/2 phosphorylation in a dose dependent manner

Cc1c(Br)cc(NC(=O)C(c2ccccc2)S(=O)(=O)O)cc1Br (stereo not shown) [Compound L319M34]
IC50 (PTPβ): > 200 µM | IC50 (Ssu72): > 200 µM | IC50 (PTP1B): > 200 µM | IC50 (TcPTP): > 200 µM | IC50 (VHZ): > 200 µM | IC50 (CD45): > 200 µM | IC50 (LYP): > 200 µM | IC50 (SHP2 [3]; pNPP at Km, pH 7.0, 25° C.): > 200 µM | IC50 (PTPσ): > 200 µM | IC50 (CDC14A): > 200 µM | IC50 (FAP1): > 200 µM | IC50 (PP5): > 200 µM | IC50 (Meg2): > 200 µM | IC50 (HePTP): > 200 µM | IC50 (PTPμ): > 200 µM | IC50 (PTPγ): > 200 µM | IC50 (PTPα): > 200 µM | IC50 (VHR): > 200 µM | IC50 (SHP1): > 200 µM | IC50 (MKP3): > 200 µM | IC50 (LAR): > 200 µM | IC50 (PTPε): > 200 µM

O=C(Nc1nnc(-c2ccc(Br)cc2)s1)C(c1ccccc1)S(=O)(=O)O (stereo not shown) [Compound L319M79]
IC50 (LMWPTP): 23.6 µM | IC50 (Laforin): 2.2 µM | IC50 (PEST): 26.5 µM
